We go through 3 compounds from ChEMBL document CHEMBL1132349, “Lead generation using pharmacophore mapping and three-dimensional database searching: application to muscarinic M(3) receptor antagonists” (J Med Chem, 1999).

Structures are written as SMILES.

For the experiment, the target named is Muscarinic acetylcholine receptor M3 (Cavia porcellus, UniProt Q8VH26). Put plainly: The compound was tested for antagonistic activity against Muscarinic acetylcholine receptor M3 in guinea pig trachea. The format is functional. To be noted: read-out: pA2 (converted).
Chain of Muscarinic acetylcholine receptor M3 (Q8VH26 whole entry): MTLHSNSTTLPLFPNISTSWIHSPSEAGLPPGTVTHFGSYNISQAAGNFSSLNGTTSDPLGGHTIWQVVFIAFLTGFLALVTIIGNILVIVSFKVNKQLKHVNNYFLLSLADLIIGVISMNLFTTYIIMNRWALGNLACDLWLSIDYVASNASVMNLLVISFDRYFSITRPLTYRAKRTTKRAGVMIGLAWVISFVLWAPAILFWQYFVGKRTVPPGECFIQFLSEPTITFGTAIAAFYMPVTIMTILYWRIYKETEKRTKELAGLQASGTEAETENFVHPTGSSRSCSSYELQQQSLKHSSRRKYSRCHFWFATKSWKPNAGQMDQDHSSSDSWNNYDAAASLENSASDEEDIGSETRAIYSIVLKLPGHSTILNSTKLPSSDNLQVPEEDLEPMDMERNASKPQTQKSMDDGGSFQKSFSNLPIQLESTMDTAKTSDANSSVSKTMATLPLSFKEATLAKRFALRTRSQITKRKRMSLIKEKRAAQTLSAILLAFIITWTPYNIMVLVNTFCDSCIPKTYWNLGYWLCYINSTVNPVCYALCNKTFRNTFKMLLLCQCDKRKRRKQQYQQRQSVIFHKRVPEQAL
For `CCN(CC)CCOc1ccccc1C(=O)Cc1ccccc1`, the Kb is 214 nM.

With `O=C(Nc1ccccc1)OC1CCCCC1CN1CCOCC1` (stereo not drawn), the Kb is 2880 nM. As to `CCCOc1ccccc1C(=O)NC1CCCCC1CN1CCCCC1` (stereo not drawn), the Kb is 14800 nM.
